Laboratory results reported in patent US12227496B2 (BRISTOL-MYERS SQUIBB COMPANY, priority 2019, dated 2025).
pEC50: −log10 of the molar value.

What follows are molecules tested against T1, human FXR (Homo sapiens, UniProt Q96RI1) (assay: transient human FXR/Gal4-luciferase reporter assay). Conditions: Gal4-hFXR LBD fusion, luciferase reporter in HEK293 cells; response relative to 8 μM GW-4064.
T1 construct: expressed in transfected cells; host or cells: HEK293 cells stably carrying a 5xGal4-response-element firefly luciferase reporter, transiently transfected with pcDNA3.1-Gal4-FXR
T1 sequence (Q96RI1 262-486 limits assumed): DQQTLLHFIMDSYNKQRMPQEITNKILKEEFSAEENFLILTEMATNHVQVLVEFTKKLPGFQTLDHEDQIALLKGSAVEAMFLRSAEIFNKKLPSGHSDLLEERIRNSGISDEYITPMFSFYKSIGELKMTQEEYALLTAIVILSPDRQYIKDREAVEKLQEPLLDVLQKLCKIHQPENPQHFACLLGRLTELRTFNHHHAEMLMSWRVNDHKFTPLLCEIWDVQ
Type: cell-based
Protocol: A Gal4-hFXR fusion construct reporter system was used as the primary assay to characterize compound activity. A construct including 5 copies of the Gal4 promoter response element upstream of a firefly luciferase reporter cDNA was stably expressed in HEK293 cells. This reporter cell line was maintained in Dulbecco's Modified Eagle's medium (DMEM; Gibco) supplemented with 1% penicillin-streptomycin (P/S) solution, 500 μg/mL Zeocin and 10% charcoal/dextran-treated fetal bovine serum (cs-FBS) at 37° C. in a humidified 5% CO2 atmosphere. […] The day prior to transfection, the reporter cells in culture are detached from the plate with trypsin and plated into a T75 flask at a sufficient density to achieve approximately 90% confluence the next morning. […] The mixture is further diluted with 10 mL of a solution comprised of DMEM, 10% cs-FBS, and 1% P/S immediately prior to transferring to the cells. The maintenance culture media is aspirated from the cells and the final transfection mixture is added before the cells are incubated overnight at 37° C. in a humidified 5% CO2 atmosphere. This protocol can be scaled up, and the transiently transfected cells can be cryopreserved in an assay-ready format. For compound testing, 100 nL of the compounds (serial dilutions in DMSO) are dispensed with an Echo acoustic dispenser (Labcyte) into the wells of a Corning/Costar clear bottom 384-well white plate. The transfected cells are harvested, counted, and diluted such that 10-25,000 cells in 25 μL are plated into each well of the 384-well compound assay plate. The compound-treated cells are incubated overnight at 37° C. in a humidified 5% CO2 atmosphere. The next morning 25 μL of Steady-Glo (Promega) are added to each well of the plate, the mixture is incubated for 15 min. with shaking, and luminescence is measured on an Envision (Perkin Elmer) plate reader.

Compound	pEC50
CCOc1ccc(-c2cc(N(CC34CCC(c5noc(C(C)(F)F)n5)(CC3)CC4)C(=O)C3CCC(O)(C(F)(F)F)CC3)ccc2F)cc1 (single isomer, unassigned) [Example 165, N-((4-(5-(1,1-difluoroethyl)-1,2,4-oxadiazol-3-yl)bicyclo[2.2.2]octan-1-yl)methyl)-N-(4′-ethoxy-6-fluoro-[1,1′-biphenyl]-3-yl)-4-hydroxy-4-(trifluoromethyl)cyclohexane-1-carboxamide]	6.58
Cc1noc(-c2cccc(N(CC34CCC(c5nc(C)no5)(CC3)CC4)C(=O)C3CCCCC3)c2)n1 [Example 1, N-((4-(3-methyl-1,2,4-oxadiazol-5-yl)bicyclo[2.2.2]octan-1-yl)methyl)-N-(3-(3-methyl-1,2,4-oxadiazol-5-yl)phenyl)cyclohexanecarboxamide]	6.13
COC(=O)c1noc(-c2cccc(N(CC34CCC(c5nc(C6CC6)no5)(CC3)CC4)C(=O)C3CCCCC3)c2)n1 [Example 2, Methyl 5-(3-(N-((4-(3-cyclopropyl-1,2,4-oxadiazol-5-yl)bicyclo[2.2.2]octan-1-yl)methyl)cyclohexanecarboxamido)phenyl)-1,2,4-oxadiazole-3-carboxylate]	6.68
CCc1noc(-c2cccc(N(CC34CCC(c5nc(C)no5)(CC3)CC4)C(=O)C3CCCCC3)c2)n1 [Example 3]	6.80
CCc1noc(-c2cccc(N(CC34CCC(c5nc(C6CC6)no5)(CC3)CC4)C(=O)C3CCC(F)(F)CC3)c2)n1 [Example 5, N-((4-(3-cyclopropyl-1,2,4-oxadiazol-5-yl)bicyclo[2.2.2]octan-1-yl)methyl)-N-(3-(3-ethyl-1,2,4-oxadiazol-5-yl)phenyl)-4,4-difluorocyclohexane-1-carboxamide]	6.10
COc1cc(-c2cccc(N(CC34CCC(c5nc(C)no5)(CC3)CC4)C(=O)C3CCCCC3)c2)no1 [Example 11, N-(3-(5-methoxyisoxazol-3-yl)phenyl)-N-((4-(3-methyl-1,2,4-oxadiazol-5-yl)bicyclo[2.2.2]octan-1-yl)methyl)cyclohexanecarboxamide]	6.18
O=C(C1CCC(F)(F)CC1)N(CC12CCC(c3nc(C4CC4)no3)(CC1)CC2)c1cccc(-c2nc(C3CC3)no2)c1 [Example 14, N-((4-(3-cyclopropyl-1,2,4-oxadiazol-5-yl)bicyclo[2.2.2]octan-1-yl)methyl)-N-(3-(3-cyclopropyl-1,2,4-oxadiazol-5-yl)phenyl)-4,4-difluorocyclohexane-1-carboxamide]	6.57
CN1CCC(C(=O)N(CC23CCC(c4nc(C5CC5)no4)(CC2)CC3)c2cccc(-c3nc(C4CC4)no3)c2)CC1 [Example 17, N-((4-(3-cyclopropyl-1,2,4-oxadiazol-5-yl)bicyclo[2.2.2]octan-1-yl)methyl)-N-(3-(3-cyclopropyl-1,2,4-oxadiazol-5-yl)phenyl)-1-methylpiperidine-4-carboxamide]	5.52
O=C(C1CCS(=O)(=O)CC1)N(CC12CCC(c3nc(C4CC4)no3)(CC1)CC2)c1cccc(-c2nc(C3CC3)no2)c1 [Example 18, N-((4-(3-cyclopropyl-1,2,4-oxadiazol-5-yl)bicyclo[2.2.2]octan-1-yl)methyl)-N-(3-(3-cyclopropyl-1,2,4-oxadiazol-5-yl)phenyl)tetrahydro-2H-thiopyran-4-carboxamide 1,1-dioxide]	5.93
CCOC(=O)c1coc(-c2cccc(N(CC34CCC(c5nc(C)no5)(CC3)CC4)C(=O)C3CCCCC3)c2)n1 [Example 19, Ethyl 2-(3-(N-((4-(3-methyl-1,2,4-oxadiazol-5-yl)bicyclo[2.2.2]octan-1-yl)methyl)cyclohexanecarboxamido)phenyl)oxazole-4-carboxylate]	5.81
CC(C)(O)c1coc(-c2cccc(N(CC34CCC(c5nc(C6CC6)no5)(CC3)CC4)C(=O)C3CCCCC3)c2)n1 [Example 21, N-((4-(3-cyclopropyl-1,2,4-oxadiazol-5-yl)bicyclo[2.2.2]octan-1-yl)methyl)-N-(3-(4-(2-hydroxypropan-2-yl)oxazol-2-yl)phenyl)cyclohexanecarboxamide]	6.71
CN1CCC(C(=O)N(CC23CCC(c4nc(C5CC5)no4)(CC2)CC3)c2cccc(-c3cnc(C4CC4)o3)c2)CC1 [Example 24, N-((4-(3-cyclopropyl-1,2,4-oxadiazol-5-yl)bicyclo[2.2.2]octan-1-yl)methyl)-N-(3-(2-cyclopropyloxazol-5-yl)phenyl)-1-methylpiperidine-4-carboxamide]	5.32

Now those with a higher pEC50, led by results:

pEC50	Compound
7.31	CCc1noc(-c2cccc(N(CC34CCC(c5nc(C6CC6)no5)(CC3)CC4)C(=O)C3CCCCC3)c2)n1 [Example 4, N-((4-(3-cyclopropyl-1,2,4-oxadiazol-5-yl)bicyclo[2.2.2]octan-1-yl)methyl)-N-(3-(3-ethyl-1,2,4-oxadiazol-5-yl)phenyl)cyclohexanecarboxamide]
6.93	COc1ncc(-c2cccc(N(CC34CCC(c5nc(C)no5)(CC3)CC4)C(=O)C3CCCCC3)c2)o1 [Example 6, N-(3-(2-methoxyoxazol-5-yl)phenyl)-N-((4-(3-methyl-1,2,4-oxadiazol-5-yl)bicyclo[2.2.2]octan-1-yl)methyl)cyclohexanecarboxamide]
7.29	COc1ncc(-c2cccc(N(CC34CCC(c5nc(C6CC6)no5)(CC3)CC4)C(=O)C3CCCCC3)c2)o1 [Example 7, N-((4-(3-cyclopropyl-1,2,4-oxadiazol-5-yl)bicyclo[2.2.2]octan-1-yl)methyl)-N-(3-(2-methoxyoxazol-5-yl)phenyl)cyclohexanecarboxamide]
7.72	CCOc1ncc(-c2cccc(N(CC34CCC(c5nc(C6CC6)no5)(CC3)CC4)C(=O)C3CCCCC3)c2)o1 [Example 8, N-((4-(3-cyclopropyl-1,2,4-oxadiazol-5-yl)bicyclo[2.2.2]octan-1-yl)methyl)-N-(3-(2-ethoxyoxazol-5-yl)phenyl)cyclohexanecarboxamide]
6.85	CCOc1ncc(-c2cccc(N(CC34CCC(c5nc(C6CC6)no5)(CC3)CC4)C(=O)C3CCC(F)(F)CC3)c2)o1 [Example 9, N-((4-(3-cyclopropyl-1,2,4-oxadiazol-5-yl)bicyclo[2.2.2]octan-1-yl)methyl)-N-(3-(2-ethoxyoxazol-5-yl)phenyl)-4,4-difluorocyclohexane-1-carboxamide]
7.15	CCOc1ncc(-c2cccc(N(CC34CCC(c5nc(C)no5)(CC3)CC4)C(=O)C3CCCCC3)c2)o1 [Example 10, N-(3-(2-ethoxyoxazol-5-yl)phenyl)-N-((4-(3-methyl-1,2,4-oxadiazol-5-yl)bicyclo[2.2.2]octan-1-yl)methyl)cyclohexanecarboxamide]
6.89	COc1cc(-c2cccc(N(CC34CCC(c5nc(C6CC6)no5)(CC3)CC4)C(=O)C3CCCCC3)c2)no1 [Example 12, N-((4-(3-cyclopropyl-1,2,4-oxadiazol-5-yl)bicyclo[2.2.2]octan-1-yl)methyl)-N-(3-(5-methoxyisoxazol-3-yl)phenyl)cyclohexanecarboxamide]
7.09	O=C(C1CCCCC1)N(CC12CCC(c3nc(C4CC4)no3)(CC1)CC2)c1cccc(-c2nc(C3CC3)no2)c1 [Example 13, N-((4-(3-cyclopropyl-1,2,4-oxadiazol-5-yl)bicyclo[2.2.2]octan-1-yl)methyl)-N-(3-(3-cyclopropyl-1,2,4-oxadiazol-5-yl)phenyl)cyclohexanecarboxamide]
6.87	O=C(C1CCOCC1)N(CC12CCC(c3nc(C4CC4)no3)(CC1)CC2)c1cccc(-c2nc(C3CC3)no2)c1 [Example 15, N-((4-(3-cyclopropyl-1,2,4-oxadiazol-5-yl)bicyclo[2.2.2]octan-1-yl)methyl)-N-(3-(3-cyclopropyl-1,2,4-oxadiazol-5-yl)phenyl)tetrahydro-2H-pyran-4-carboxamide]
7.43	O=C(C1CCCCC1)N(CC12CCC(c3nc(C4CC4)no3)(CC1)CC2)c1cccc(-c2cnc(C3CC3)o2)c1 [Example 22, N-((4-(3-cyclopropyl-1,2,4-oxadiazol-5-yl)bicyclo[2.2.2]octan-1-yl)methyl)-N-(3-(2-cyclopropyloxazol-5-yl)phenyl)cyclohexanecarboxamide]
7.13	O=C(C1CCOCC1)N(CC12CCC(c3nc(C4CC4)no3)(CC1)CC2)c1cccc(-c2cnc(C3CC3)o2)c1 [Example 23, N-((4-(3-cyclopropyl-1,2,4-oxadiazol-5-yl)bicyclo[2.2.2]octan-1-yl)methyl)-N-(3-(2-cyclopropyloxazol-5-yl)phenyl)tetrahydro-2H-pyran-4-carboxamide]
